Structures can show the parent of a compound that is named as a salt.
Target: Protein Kinase C beta 2 (PKCβII) (Homo sapiens (Human), UniProt P05771)
Assay: PKCβII coupled spectrophotometric kinase assay (PK/LDH, NADH absorbance at 340 nm)
Format: biochemical
Conditions: apparent Ki, ATP competitive inhibition model (Morrison equation); 0.1 mM ATP, 5 nM PKC, 30° C.; read-out: Ki app
Experimental: Protein Kinase C beta 2 (PKCβII) catalyzes the production of ADP from ATP that accompanies the phosphoryl transfer to the PKC Pseudosubstrate peptide (A→S, RFARKGSLRQKNV). This transfer is coupled to the oxidation of β-NADH through the activities of Pyruvate Kinase (PK) and Lactate Dehydrogenase (LDH). β-NADH conversion to NAD+ is monitored by the decrease in absorbance at 340 nm (e=6.22 cm^−1 mM^−1) using a Molecular Devices SPECTRA max PLUS spectrophotometer.
A typical assay was carried out on a 96-well, clear microtiter plate in a Molecular Devices spectrophotometer for 20 minutes at 30° C. in 0.1 mL of assay buffer containing 50 mM HEPES, pH 7.4, 5 nM PKC, 23 units of pyruvate kinase, 33 units of lactate dehydrogenase, 0.15 mM peptide, 0.1 mM ATP, 1 mM DTT, 4 mM PEP, 8 mM MgCl2, 0.3 mM NADH, 60 mM CaCl2, 10 mg/mL PS, 50 ng/mL PMA, 7.5% DMSO and from about 10,000 nM to 0.169 nM compound inhibitor. Stock solutions of 3-sn-phosphatidyl-L-serine (PS) and phorbol-12-myristate-13-acetate (PMA) were sonicated for 30 seconds just prior to addition to assay buffer and assays were initiated by the addition of 100 μM ATP.
Steady-state kinetic parameters for the bi-bi kinase reaction were determined at saturating phospho-acceptor peptide substrate concentration (0.15 mM) by fitting initial velocity data to the Michaelis-Menten equation, v=Vmax[S]/(KM+[S]) where v is the measured initial velocity, Vmax is the maximal enzyme velocity, [S] is the ATP substrate concentration, and KM is the Michealis constant for ATP. Enzyme turnover values (kcat) were calculated according to […], where [E] is the total enzyme concentration. Enzyme inhibition constants (apparent Ki values) were determined by fitting initial velocities at variable inhibitor concentrations to a model for ATP competitive inhibition based on the Morrison equation). Morrison, J. F., Biochim. Biophys Acta 185: 269-286 (1969).

Protein Kinase C beta 2 (PKCβII), sequence (P05771 other isoform, or with tags, fused parts or gaps): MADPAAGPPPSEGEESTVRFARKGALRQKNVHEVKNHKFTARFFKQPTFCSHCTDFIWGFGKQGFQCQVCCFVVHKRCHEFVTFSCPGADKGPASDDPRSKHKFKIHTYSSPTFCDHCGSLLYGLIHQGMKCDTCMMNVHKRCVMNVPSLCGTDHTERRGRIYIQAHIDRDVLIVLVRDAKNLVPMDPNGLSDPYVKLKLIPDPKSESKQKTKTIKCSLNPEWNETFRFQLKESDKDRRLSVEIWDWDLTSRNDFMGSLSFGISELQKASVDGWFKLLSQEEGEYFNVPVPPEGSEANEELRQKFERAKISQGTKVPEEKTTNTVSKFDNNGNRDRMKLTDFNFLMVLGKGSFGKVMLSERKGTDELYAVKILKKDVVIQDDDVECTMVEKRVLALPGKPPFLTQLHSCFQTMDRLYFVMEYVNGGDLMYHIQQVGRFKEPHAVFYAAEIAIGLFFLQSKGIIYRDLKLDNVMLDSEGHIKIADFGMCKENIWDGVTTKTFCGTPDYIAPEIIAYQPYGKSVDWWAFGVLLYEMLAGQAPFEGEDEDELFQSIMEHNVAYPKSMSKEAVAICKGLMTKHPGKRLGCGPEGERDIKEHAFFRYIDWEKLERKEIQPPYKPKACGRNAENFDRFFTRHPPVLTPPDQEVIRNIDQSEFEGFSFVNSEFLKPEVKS

Ki | Structure (SMILES)
58.2 nM | Cc1ncc(F)c(Nc2n[nH]c3c2CN(C(=O)N2CC(CCO)N(C)C[C@@H]2C)C3(C)C)n1 (single isomer, unassigned) [Example H9]
180 nM | Cc1ncc(F)c(Nc2n[nH]c3c2CN(C(=O)N2CC(CCO)N(C)C[C@@H]2C)C3(C)C)n1 (single isomer, unassigned) [Example H10]
36.5 nM | COc1ncc(F)c(Nc2n[nH]c3c2CN(C(=O)N2CC(CCO)N(C)C[C@@H]2C)C3(C)C)n1 (single isomer, unassigned) [Example K25]
54.7 nM | COc1ncc(F)c(Nc2n[nH]c3c2CN(C(=O)N2CC(CCO)N(C)C[C@@H]2C)C3(C)C)n1 (single isomer, unassigned) [Example K26]
< 10 nM | COCc1ncc(F)c(Nc2n[nH]c3c2CN(C(=O)N2CC(CCO)N(C)C[C@@H]2C)C3(C)C)n1 (single isomer, unassigned) [Example N2]
29.1 nM | Cc1ncc(F)c(Nc2n[nH]c3c2CN(C(=O)N2C[C@@H](C)N(CCCO)C[C@@H]2C)C3(C)C)n1 (stereo in doubt) [AA5, [3-(5-fluoro-2-methyl-pyrimidin-4-ylamino)-6,6-dimethyl-4,6-dihydro-1H-pyrrolo[3,4-c]pyrazol-5-yl]-[4-(3-hydroxy-propyl)-2,5-dimethyl-piperazin-1-yl]-methanone]
18.9 nM | CCN1C[C@H](C)N(C(=O)N2Cc3c(Nc4nc(C)ncc4F)n[nH]c3C2(C)C)C[C@H]1C [AA2, 5-{[(2S,5R)-4-ethyl-2,5-dimethylpiperazin-1-yl]carbonyl}-N-(5-fluoro-2-methylpyrimidin-4-yl)-6,6-dimethyl-1,4,5,6-tetrahydropyrrolo[3,4-c]pyrazol-3-amine]
14.8 nM | CCN1C[C@H](C)N(C(=O)N2Cc3c(Nc4nc(C)nc(C)c4F)n[nH]c3C2(C)C)C[C@H]1C [AA3, 5-{[(2S,5R)-4-ethyl-2,5-dimethylpiperazin-1-yl]carbonyl}-N-(5-fluoro-2,6-dimethylpyrimidin-4-yl)-6,6-dimethyl-1,4,5,6-tetrahydropyrrolo[3,4-c]pyrazol-3-amine]
147 nM | Cc1ncc(F)c(Nc2n[nH]c3c2CN(C(=O)N2C[C@H](C)N(C)C[C@@H]2C)C3(C)C)n1 [AA4, 2(S),5(S)-{[dimethyl-4-methylpiperazin-1-yl]carbonyl}-N-(5-fluoro-2-methylpyrimidin-4-yl)-6,6-dimethyl-1,4,5,6-tetrahydropyrrolo[3,4-c]pyrazol-3-amine]
22.9 nM | CCN1C[C@H](C)N(C(=O)N2Cc3c(Nc4nc(OC)ncc4F)n[nH]c3C2(C)C)C[C@H]1C [Example AA1, 5-{[(2S,5R)-4-ethyl-2,5-dimethylpiperazin-1-yl]carbonyl}-N-(5-fluoro-2-methoxypyrimidin-4-yl)-6,6-dimethyl-1,4,5,6-tetrahydropyrrolo[3,4-c]pyrazol-3-amine]
5.09 nM | CCNc1ncc(F)c(Nc2n[nH]c3c2CN(C(=O)N2C[C@@H](C)N(CCCOC)C[C@@H]2C)C3(C)C)n1 [Example B1, N^2-ethyl-5-fluoro-N^4-(5-{[(2S,5R)-4-(3-methoxypropyl)-2,5-dimethylpiperazin-1-yl]carbonyl}-6,6-dimethyl-1,4,5,6-tetrahydropyrrolo[3,4-c]pyrazol-3-yl)pyrimidine-2,4-diamine acetate salt]
24.5 nM | CCNc1ncc(F)c(Nc2n[nH]c3c2CN(C(=O)N2C[C@@H]4CCCN4C[C@@H]2C)C3(C)C)n1 [Example B2, N^4-(6,6-dimethyl-5-{[(3S,8aS)-3-methylhexahydropyrrolo[1,2-a]pyrazin-2(1H)-yl]carbonyl}-1,4,5,6-tetrahydropyrrolo[3,4-c]pyrazol-3-yl)-N^2-ethyl-5-fluoropyrimidine-2,4-diamine]
2.03 nM | CCNc1ncc(F)c(Nc2n[nH]c3c2CN(C(=O)N2C[C@@H](C)N(C)C[C@@H]2C)C3(C)C)n1 [Example B3, N^4-(6,6-dimethyl-5-{[(2S,5R)-2,4,5-trimethylpiperazin-1-yl]carbonyl}-1,4,5,6-tetrahydropyrrolo[3,4-c]pyrazol-3-yl)-N^2-ethyl-5-fluoropyrimidine-2,4-diamine]
13.5 nM | CCNc1ncc(F)c(Nc2n[nH]c3c2CN(C(=O)N2C[C@@H](C)N(CCOC)C[C@@H]2C)C3(C)C)n1 [Example B4, N^2-ethyl-5-fluoro-N4-(5-{[(2S,5R)-4-(2-methoxyethyl)-2,5-dimethylpiperazin-1-yl]carbonyl}-6,6-dimethyl-1,4,5,6-tetrahydropyrrolo[3,4-c]pyrazol-3-yl)pyrimidine-2,4-diamine]

Further lines, the compound ahead of its results:

Structure (SMILES) | Ki
C[C@H]1CN(C)C(C)(C)CN1C(=O)N1Cc2c(Nc3nc(N(C)C)ncc3F)n[nH]c2C1(C)C [Example A2, N^4-(6,6-dimethyl-5-{[(2S)-2,4,5,5-tetramethylpiperazin-1-yl]carbonyl}-1,4,5,6-tetrahydropyrrolo[3,4-c]pyrazol-3-yl)-5-fluoro-N^2,N^2-dimethylpyrimidine-2,4-diamine] | 8.75 nM
C[C@H]1CN(C)C(C)(C)CN1C(=O)N1Cc2c(Nc3nc(NCC4CC4)ncc3F)n[nH]c2C1(C)C [Example A3, N^2-(cyclopropylmethyl)-N^4-(6,6-dimethyl-5-{[(2S)-2,4,5,5-tetramethylpiperazin-1-yl]carbonyl}-1,4,5,6-tetrahydropyrrolo[3,4-c]pyrazol-3-yl)-5-fluoropyrimidine-2,4-diamine] | 17.9 nM
CC(C)CNc1ncc(F)c(Nc2n[nH]c3c2CN(C(=O)N2CC(C)(C)N(C)C[C@@H]2C)C3(C)C)n1 [Example A4, N^4-(6,6-dimethyl-5-{[(2S)-2,4,5,5-tetramethylpiperazin-1-yl]carbonyl}-1,4,5,6-, tetrahydropyrrolo[3,4-c]pyrazol-3-yl)-5-fluoro-N^2-isobutylpyrimidine-2,4-diamine acetate salt] | 37.6 nM
C[C@H]1CN(C)C(C)(C)CN1C(=O)N1Cc2c(Nc3nc(NC4CC4)ncc3F)n[nH]c2C1(C)C [Example A5, N2-cyclopropyl-N4-(6,6-dimethyl-5-{[(2S)-2,4,5,5-tetramethylpiperazin-1-yl]carbonyl}-1,4,5,6-tetrahydropyrrolo[3,4-c]pyrazol-3-yl)-5-fluoropyrimidine-2,4-diamine] | 3.95 nM
CNc1ncc(F)c(Nc2n[nH]c3c2CN(C(=O)N2CC(C)(C)N(C)C[C@@H]2C)C3(C)C)n1 [Example A6, N^4-(6,6-dimethyl-5-{[(2S)-2,4,5,5-tetramethylpiperazin-1-yl]carbonyl}-1,4,5,6-, tetrahydropyrrolo[3,4-c]pyrazol-3-yl)-5-fluoro-N^2-methylpyrimidine-2,4-diamine] | 10.8 nM
CC(C)Nc1ncc(F)c(Nc2n[nH]c3c2CN(C(=O)N2CC(C)(C)N(C)C[C@@H]2C)C3(C)C)n1 [Example A7, N^4-(6,6-dimethyl-5-{[(2S)-2,4,5,5-tetramethylpiperazin-1-yl]carbonyl}-1,4,5,6-tetrahydropyrrolo[3,4-c]pyrazol-3-yl)-5-fluoro-N^2-isopropylpyrimidine-2,4-diamine] | 3.81 nM
CCNc1nccc(Nc2n[nH]c3c2CN(C(=O)N2CC(C)(C)N(C)C[C@@H]2C)C3(C)C)n1 [Example A8, N^4-(6,6-dimethyl-5-{[(2S)-2,4,5,5-tetramethylpiperazin-1-yl]carbonyl}-1,4,5,6-tetrahydropyrrolo[3,4-c]pyrazol-3-yl)-N^2-ethylpyrimidine-2,4-diamine] | 3.39 nM
C[C@H]1CN(C)C(C)(C)CN1C(=O)N1Cc2c(Nc3ccnc(N(C)C)n3)n[nH]c2C1(C)C [Example A9, N^4-(6,6-dimethyl-5-{[(2S)-2,4,5,5-tetramethylpiperazin-1-yl]carbonyl}-1,4,5,6-tetrahydropyrrolo[3,4-c]pyrazol-3-yl)-N^2,N^2-dimethylpyrimidine-2,4-diamine] | 9.73 nM
Cc1ncc(F)c(Nc2n[nH]c3c2CN(C(=O)N2CC4(CCCC4)N(C)C[C@@H]2C)C3(C)C)n1 [Example A10, 5-{[(8S)-6,8-dimethyl-6,9-diazaspiro[4.5]dec-9-yl]carbonyl}-N-(5-fluoro-2-methylpyrimidin-4-yl)-6,6-dimethyl-1,4,5,6-tetrahydropyrrolo[3,4-c]pyrazol-3-amine] | 1.01 nM
CCNc1ncc(F)c(Nc2n[nH]c3c2CN(C(=O)N2C[C@@H](C)N(CC4CCOCC4)C[C@@H]2C)C3(C)C)n1 [Example A11, N^4-(5-{[(2S,5R)-2,5-dimethyl-4-(tetrahydro-2H-pyran-4-ylmethyl)piperazin-1-yl]carbonyl}-6,6-dimethyl-1,4,5,6-tetrahydropyrrolo[3,4-c]pyrazol-3-yl)-N^2-ethyl-5-fluoropyrimidine-2,4-diamine] | < 10 nM
CCNc1ncc(F)c(Nc2n[nH]c3c2CN(C(=O)N2C[C@@H](C)N(C4CCOCC4)C[C@@H]2C)C3(C)C)n1 [Example A12, N^4-(5-{[(2S,5R)-2,5-dimethyl-4-(tetrahydro-2H-pyran-4-yl)piperazin-1-yl]carbonyl}-6,6-dimethyl-1,4,5,6-tetrahydropyrrolo[3,4-c]pyrazol-3-yl)-N^2-ethyl-5-fluoropyrimidine-2,4-diamine] | < 10 nM

— patent US9518060B2, “Substituted pyrrolo[3,4-c]pyrazoles as PKC kinase inhibitors” (PFIZER INC., priority 2007, dated 2016)
